“Also recorded” adds a separate entry of the source.
Legend:
conscious SCI rats = assay: Cystometric parameters in conscious spinal cord injury (SCI) rats; format: in vivo, rat
Description: Test substance effects were compared to those of the reference substance, the β3-adrenoceptor agonist mirabegron, marketed for overactive bladder.
• At W-5, spinal cord injury was performed at T8 level as described below. • Over W-5, rats were treated daily with gentamicin. • Over W-5 and W-4, bladder was emptied manually once a day. • From W-5 to W0, animals were weighed once per week. • At D-2 (W0), implantation of catheters was performed under isoflurane anaesthesia as described below. • At D0 (W0), cystometry was performed
Rats were anesthetized with isoflurane (3%). Body temperature was constantly maintained at 37° C. throughout the surgery by placing animals on a thermo-regulated hot plate. A laminectomy was performed and the spinal cord was sectioned with microscissors at T8 level. Care was taken to assure that the section was complete by verifying that a slight retraction of the two segments occurred. Then the muscle was sutured and the skin fixed with staples. The scar was cleaned by Vetedine. For the Sham group, the same surgery was performed without section of the spinal cord.
The urinary bladder was squeezed once a day for 14 days with a gentle massage of the abdomen until restoration of the micturition reflex. In addition, they were administered intramuscularly daily for one week with gentamicin (2 mg/mL, 0.2 ml/rat). Animals were euthanized if they reached humane endpoints: weight loss of greater than 20% of their body weight and/or abnormal behavioral changes indicating presence of pain and distress (prostration, self-mutilation, aggressiveness).
Rats were anesthetized with isoflurane (3%). Body temperature was constantly maintained at 37° C. throughout the surgery by placing animals on a thermo-regulated hot plate. A polyethylene catheter (0.58 and 0.96 mm of inner and outer diameters, respectively) was implanted in the bladder through the dome for intravesical pressure recording. Another catheter (0.58 and 0.96 mm of inner and outer diameters, respectively) was implanted in the stomach for intra-gastric administration. Catheters were exteriorized at the scapular level. After surgery, each rat was housed individually up to the end of the protocol with free access to food and water.
Animals were held under partial restraint in a restraining device. Saline was infused into the bladder at a constant flow rate of 2 or 6 mL/h for sham or SCI rats, respectively. After at least 45 min (3 complete micturition cycles corresponding to basal values), test substances were administered by intra-gastric route. Then, intravesical pressure was recorded for 90 min.
The following cystometric parameters were analyzed (see FIG. 10): • Amplitude of micturition (AM, mmHg). • Threshold pressure (ThP, mmHg). • Intercontraction interval (ICI, sec): time between basal pressure and ThP. ICI was not presented due to different infusion rate in sham and SCI rats. ICI was only analyzed to calculate the bladder capacity. • Bladder capacity (BC, mL) BC=ICI×infusion rate. • Amplitude of non voiding contractions (NVC, mmHg) • Frequency of NVC (number per min).
For each cystometric parameter and for each time period, the comparisons were performed as described below: • Basal values of each cystometric parameter of Sham/Vehicle and SCI/Vehicle groups were compared using unpaired student t test • Basal values of each cystometric parameter of all SCI groups were compared using one-way ANOVA or Kruskal-Wallis test • The 3 interval periods of 30 min post treatment of each cystometric parameter within the same group were compared to corresponding basal values using one-way ANOVA with repeated measures or Friedman test followed by Dunnett's or Dunn's post-test, respectively. • The 3 interval periods of 30 min post treatment of each cystometric parameter were compared between all SCI groups using one-way ANOVA or Kruskal Wallis test followed by Holm-Sidak's or Dunn's post-test versus Vehicle, respectively.

[1] = test system: rhythmic bladder contractions (RBC) in anesthetized female rats; assay: Isovolumetric model: rhythmic bladder contractions (RBC), cystometry; format: in vivo, rat; conditions: for Inhibition time: after i.v.; for RBC amplitude, basal / RBC frequency, basal: basal period −30/0 min before i.v. administration, group mean
From the text: In rats, under isovolumetric condition, bladder distension induced rhythmic bladder contractions (RBC) (Aizawa et al, (2015) Effects of L-arginine, mirabegron, and oxybutynin on the primary bladder afferent nerve activities synchronized with reflexic, rhythmic bladder contractions in the rat. Neurourology & Urodynamics 34:368-374). This isovolumetric model allows the evaluation of compound on RBC. It is a closed system where the bladder is slowly infused through a urethral catheter with saline until the occurrence of spontaneous rhythmic bladder contractions.
Test substance effects were compared to that of the reference substance, tolterodine, an […], marketed for overactive bladder in humans.
Protocol: • Animals were anesthetized with urethane (i.p.). • Ureters were ligated and sectioned close to the kidneys. • Intravesical catheter was inserted into the bladder though the urinary meatus. • Urinary meatus was closed. • A catheter was inserted into the jugular vein for compound administration. • Bladder was filled with saline until the occurrence of RBC. • After 30 min basal period, compounds were administered as described below. • The effect of the test substances was followed by 1-hour post administration.
Rats were anesthetized with an intraperitoneal administration of urethane (1 g/kg). The ureters were ligated and sectioned close to the kidneys. A catheter (0.30 and 0.70 mm of inner and outer diameters, respectively) was inserted through the urinary meatus into the bladder before urethral ligature. Another catheter (0.58 and 0.96 mm of inner and outer diameters, respectively) was inserted into the jugular vein for intravenous (i.v.) administration.
For all group, animals were treated by i.v. route (1 mL/kg) (slow bolus) after the basal period.
The vesical catheter was connected via a T-tube to a strain gauge (to measure intra-vesical pressure) and to a syringe. Isovolumetric bladder contractions were induced by stepwise injections of physiological saline at room temperature (100 μL every 5 min) until stable RBC occurred. Vesical pressure was continuously recorded. After a 30 min control period (basal values), substances or vehicle were i.v. administered. The effects of substances were followed during 60 min after administration. At the end of the experiments, animals were sacrificed by cervical dislocation.
The following parameters were analyzed: • Amplitude of RBC (mmHg) • Frequency of RBC (number/30 min) • Time of inhibition (sec)
The % variation from the basal values were calculated for RBC frequency and amplitude.
Statistical analysis and graphs were performed using GraphPad Prism® (GraphPad Software Inc., La Jolla, CA, USA). A p value <0.05 was accepted for statistical significance.

[2] = i.g., Cpd (IA) 30 mg/kg, mirabegron 10 mg/kg
[3] = 0/60 min after i.v., Cpd (IA) 3 mg/kg (n=8), tolterodine 1 mg/kg, mean
[4] = 0/60 min after i.v., Cpd (IA) 3 mg/kg, tolterodine 1 mg/kg, mean
[5] = 0/60 min after i.v., Cpd (IA) 3 mg/kg, tolterodine 1 mg/kg, mean, listed as compound of formula (IA)
[6] = listed as compound of formula (IA)
[7] = i.v., Cpd (IA) 3 mg/kg, tolterodine 1 mg/kg, vs basal
[8] = i.v., Cpd (IA) 3 mg/kg, tolterodine 1 mg/kg, vs vehicle

In the case of `O=C(O)c1nc2ccccc2n([C@H]2C[C@H]3CCC[C@@H](C2)N3C2CC3CCCC(C3)C2)c1=O` (stereo partly shown) [Cpd (IA)], the “% of variation from basal values of BC” value (conscious SCI rats; Cpd (IA) 30 mg/kg i.g., 0-30 min interval, mean±s.e.m., vehicle −0.4±15) was −35±7%, the “AM (amplitude of micturition), effect versus basal” value (conscious SCI rats; [2]) was “did not significantly modify” and the “AM (mmHg and % variation), effect versus vehicle” value (conscious SCI rats; [2]) was “not significantly modified”. The “BC expressed in % variation from basal, effect versus vehicle” value (conscious SCI rats; [2]) was “significantly decreased BC for the 0-30 min post-administration interval period; also recorded: significantly reduced BC, compared to vehicle, for the 0-30 min post-administration interval period”, the “BC expressed in mL, effect versus vehicle” value (conscious SCI rats; [2]) was “no significant difference” and the “NVC amplitude (mmHg or % variation), effect versus vehicle” value (conscious SCI rats; [2]) was “not significantly modified”. The “NVC amplitude, effect versus basal” value (conscious SCI rats; [2]) was “significantly decreased NVC amplitude for the 30-60 and 60-90 min post-administration interval periods”, the “NVC frequency (NVC/min and % variation), effect versus vehicle” value (conscious SCI rats; [2]) was “not significantly modified” and the “NVC frequency, effect versus basal” value (conscious SCI rats; [2]) was “significantly decreased NVC frequency for the 0-30 and 60-90 min interval periods”. The “ThP (mmHg and % variation), effect versus vehicle” value (conscious SCI rats; [2]) was “not significantly modified”, the “ThP (threshold pressure), effect versus basal” value (conscious SCI rats; [2]) was “no significant effect” and the “BC (bladder capacity), effect versus basal” value (conscious SCI rats; i.g., Cpd (IA) 30 mg/kg, mirabegron 10 mg/kg, 30-min interval periods to 90 min) was “significantly decreased BC for the 0-30 and 30-60 min post-administration interval periods”. The “NVC frequency, effect versus basal” value (conscious SCI rats; i.g., Cpd (IA) 30 mg/kg, mirabegron 10 mg/kg, listed as compound of formula (IA)) was “significantly decreased NVC frequency compared to basal value for the 0-30 and 60-90 min post-administration interval periods”, the “RBC amplitude, % variation from basal” value [1, 3] was 1.25% and the “RBC amplitude, treated period” value [1, 3] was 27.57 mmHg. The “RBC frequency, % variation from basal” value [1, 4] was about 88.57%, the “RBC frequency, treated period” value [1, 4] was 3.05 nb of RBC/30 min and the “RBC frequency, % variation from basal” value [1, 5] was -88.57±3.68%. For the same compound, the “RBC frequency, treated period” value [1, 5] was 3.05±1.02 nb of RBC/30 min, the Inhibition time ([1]; Cpd (IA) 3 mg/kg, tolterodine 1 mg/kg, mean) was 2860.51 s and the Inhibition time ([1]; Cpd (IA) 3 mg/kg, tolterodine 1 mg/kg, mean, listed as compound of formula (IA)) was 2860.51 ± 272.38 s. The “RBC amplitude, basal” value [1] was 29.49 mmHg, the “RBC frequency, basal” value [1] was 25.90 nb of RBC/30 min and the “RBC amplitude, basal” value [1, 6] was 29.49±2.46 mmHg. The “RBC frequency, basal” value [1, 6] was 25.90±1.36 nb of RBC/30 min, the bladder afferent activity ([1]; conclusion of Example 1) was “significantly decreased” and the “RBC amplitude, effect versus basal” value [1, 7] was “No significant effect”. The “RBC frequency, effect versus basal” value [1, 7] was “significantly decreased”, the “RBC amplitude (% variation), effect versus vehicle” value [1, 8] was “did not significantly modify” and the “RBC frequency (% variation), effect versus vehicle” value [1, 8] was “significantly decreased”. The “time of inhibition, effect versus vehicle” value [1, 8] was “significantly increased”.

From patent publication US20250381180A1, “METHODS OF TREATING OR PREVENTING OVERACTIVE BLADDER SYNDROME” (Purdue Pharma L.P., priority 2022, published 2025)
